Experiments:
VLA-4 (α4β1 integrin) [1] = molecular target: T1, VLA-4 (α4β1 integrin) (Homo sapiens, UniProt P05556+P13612); assay: VLA-4/VCAM-1 Screening Assay (solid-phase dual antibody ELISA); conditions: Ramos cell-derived VLA-4 binding to immobilized recombinant human VCAM-1
T1 construct: Ramos cells bearing cell-surface VLA-4; endogenous in cells; host or cells: Ramos cells
Procedure: VLA-4/VCAM-1 Screening Assay
VLA-4 antagonist activity, defined as ability to compete for binding to immobilized VCAM-1, was quantitated using a solid-phase, dual antibody ELISA. VLA-4 (α4β1 integrin) bound to VCAM-1 was detected by a complex of anti-integrin β1 antibody: HRP-conjugated anti-mouse IgG: chromogenic substrate (K-Blue). Initially, this entailed coating 96 well plates (Nunc Maxisorp) with recombinant human VCAM-1 (0.4 μg in 100 μl PBS), sealing each plate and then allowing the plates to stand at 4° C. for ˜18 hr. […] On the day of assay, all plates were washed twice with VCAM Assay Buffer (200 μl/well of 50 mM Tris-HCl, 100 mM NaCl, 1 mM MnCl2, 0.05% Tween 20; pH 7.4). Test compounds were dissolved in 100% DMSO and then diluted 1:20 in VCAM Assay Buffer supplemented with 1 mg/mL BSA (i.e., final DMSO=5%). A series of 1:4 dilutions were performed to achieve a concentration range of 0.005 nM-1.563 μM for each test compound. 100 μl per well of each dilution was added to the VCAM-coated plates, followed by 10 μl of Ramos cell-derived VLA-4. These plates were sequentially mixed on a platform shaker for 1 min, incubated for 2 hr at 37° C., and then washed four times with 200 μl/well VCAM Assay Buffer. 100 μl of mouse anti-human integrin β1 antibody was added to each well (0.6 μg/mL in VCAM Assay Buffer+1 mg/mL BSA) and allowed to incubate for 1 hr at 37° C. At the conclusion of this incubation period, all plates were washed four times with VCAM Assay Buffer (200 μl/well). A corresponding second antibody, HRP-conjugated goat anti-mouse IgG (100 μl per well @ 1:800 dilution in VCAM Assay Buffer+1 mg/mL BSA), was then added to each well, followed by a 1 hr incubation at room temperature and concluded by three washes (200 μl/well) with VCAM Assay Buffer. Color development was initiated by addition of 100 μl K-Blue per well (15 min incubation, room temp) and terminated by addition of 100 μl Red Stop Buffer per well. All plates were then read in a UV/Vis spectrophotometer at […]. Results were calculated as % inhibition of total binding (i.e., VLA-4+VCAM-1 in the absence of test compound). The results are provided in the following Table I (A=IC50<1 nM, B=IC50<10 nM): […]

VLA-4 (α4β1 integrin) [2] = molecular target: T1, VLA-4 (α4β1 integrin); assay: Ramos (VLA-4)/VCAM-1 Cell-Based Screening Assay (cell adhesion); conditions: Calcein-AM labeled Ramos cells adhering to immobilized recombinant human VCAM-1
Procedure: Ramos (VLA-4)/VCAM-1 Cell-Based Screening Assay Protocol
Soluble recombinant human VCAM-1 (mixture of 5- and 7-Ig domain) was purified from CHO cell culture media by inmmunoaffinity chromatography and maintained in a solution containing 0.1 M Tris-glycine (pH 7.5), 0.1 M NaCl, 5 mM EDTA, 1 mM PMSF, […] NaN3 and 10 μg/mL leupeptin. Calcein-AM was purchased from Molecular Probes Inc.
VLA-4 (α4β1 integrin) antagonist activity, defined as ability to compete with cell-surface VLA-4 for binding to immobilized VCAM-1, was quantitated using a Ramos-VCAM-1 cell adhesion assay. Ramos cells bearing cell-surface VLA-4, were labeled with a fluorescent dye (Calcein-AM) and allowed to bind VCAM-1 in the presence or absence of test compounds. A reduction in fluorescence intensity associated with adherent cells (% inhibition) reflected competitive inhibition of VLA-4 mediated cell adhesion by the test compound.
Initially, this entailed coating 96 well plates (Nunc Maxisorp) with recombinant human VCAM-1 (100 ng in 100 μl PBS), sealing each plate and allowing the plates to stand at 4° C. for ≈18 hr. The VCAM-coated plates were subsequently washed twice with 0.05% Tween-20 in PBS, and then blocked for 1 hr (room temperature) with 200 μl of Blocking Buffer (1% BSA/0.02% thimerosal) to reduce non-specific binding. Following the incubation with Blocking Buffer, plates were inverted, blotted and the remaining buffer aspirated. Each plate was then washed with 300 μl PBS, inverted and the remaining PBS aspirated.
Test compounds were dissolved in 100% DMSO and then diluted 1:25 in VCAM Cell Adhesion Assay Buffer (4 mM CaCl2, 4 mM MgCl2 in 50 mM TRIS-HCl, pH 7.5) (final DMSO=4%). A series of eight 1:4 dilutions were performed for each compound (general concentration range of 1 nM-12,500 nM). 100 μl/well of each dilution was added to the VCAM-coated plates, followed by 100 μl of Ramos cells (200,000 cells/well in 1% BSA/PBS). Plates containing test compounds and Ramos cells were allowed to incubate for 45 min at room temperature, after which 165 μl/well PBS was added. Plates were inverted to remove non-adherent cells, blotted and 300 μl/well PBS added. Plates were again inverted, blotted and the remaining buffer gently aspirated. 100 μl Lysis Buffer (0.1% SDS in 50 mM TRIS-HCl, pH 8.5) was added to each well and agitated for 2 min on a rotary shaking platform. The plates were then read for fluorescence intensity on a Cytofluor 2300 (Millipore) fluorecence measurement system (excitation=485 nm, emission=530 nm). The results are shown in the following Table II, where (A=IC50<100 nM, B=IC50<10000 nM): […]

T1 sequence (P13612 34-1032): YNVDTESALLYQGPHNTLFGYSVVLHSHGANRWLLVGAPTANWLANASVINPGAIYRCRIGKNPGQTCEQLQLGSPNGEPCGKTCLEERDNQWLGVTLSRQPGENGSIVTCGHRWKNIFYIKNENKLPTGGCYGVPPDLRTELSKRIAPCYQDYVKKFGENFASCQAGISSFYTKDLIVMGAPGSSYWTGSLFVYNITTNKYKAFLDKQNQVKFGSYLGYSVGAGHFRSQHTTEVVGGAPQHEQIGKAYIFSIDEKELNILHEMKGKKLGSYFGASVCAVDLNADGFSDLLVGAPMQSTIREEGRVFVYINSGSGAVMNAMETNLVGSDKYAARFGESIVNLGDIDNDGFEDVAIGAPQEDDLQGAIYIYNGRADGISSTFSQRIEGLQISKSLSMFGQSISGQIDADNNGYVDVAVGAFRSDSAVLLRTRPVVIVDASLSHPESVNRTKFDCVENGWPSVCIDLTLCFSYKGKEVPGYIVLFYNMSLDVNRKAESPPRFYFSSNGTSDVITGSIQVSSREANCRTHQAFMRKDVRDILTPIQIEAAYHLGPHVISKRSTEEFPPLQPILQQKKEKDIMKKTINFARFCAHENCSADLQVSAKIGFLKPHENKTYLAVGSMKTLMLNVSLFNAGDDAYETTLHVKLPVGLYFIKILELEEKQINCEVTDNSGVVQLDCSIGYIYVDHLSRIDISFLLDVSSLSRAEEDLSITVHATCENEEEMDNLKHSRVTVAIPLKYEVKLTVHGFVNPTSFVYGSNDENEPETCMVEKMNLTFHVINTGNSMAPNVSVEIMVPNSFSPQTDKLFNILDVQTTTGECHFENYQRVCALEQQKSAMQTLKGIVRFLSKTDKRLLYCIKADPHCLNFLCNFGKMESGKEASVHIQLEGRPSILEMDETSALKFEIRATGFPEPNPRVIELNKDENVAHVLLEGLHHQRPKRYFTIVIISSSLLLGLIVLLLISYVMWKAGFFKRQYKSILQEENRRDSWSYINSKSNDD
T1 sequence (P05556 21-798): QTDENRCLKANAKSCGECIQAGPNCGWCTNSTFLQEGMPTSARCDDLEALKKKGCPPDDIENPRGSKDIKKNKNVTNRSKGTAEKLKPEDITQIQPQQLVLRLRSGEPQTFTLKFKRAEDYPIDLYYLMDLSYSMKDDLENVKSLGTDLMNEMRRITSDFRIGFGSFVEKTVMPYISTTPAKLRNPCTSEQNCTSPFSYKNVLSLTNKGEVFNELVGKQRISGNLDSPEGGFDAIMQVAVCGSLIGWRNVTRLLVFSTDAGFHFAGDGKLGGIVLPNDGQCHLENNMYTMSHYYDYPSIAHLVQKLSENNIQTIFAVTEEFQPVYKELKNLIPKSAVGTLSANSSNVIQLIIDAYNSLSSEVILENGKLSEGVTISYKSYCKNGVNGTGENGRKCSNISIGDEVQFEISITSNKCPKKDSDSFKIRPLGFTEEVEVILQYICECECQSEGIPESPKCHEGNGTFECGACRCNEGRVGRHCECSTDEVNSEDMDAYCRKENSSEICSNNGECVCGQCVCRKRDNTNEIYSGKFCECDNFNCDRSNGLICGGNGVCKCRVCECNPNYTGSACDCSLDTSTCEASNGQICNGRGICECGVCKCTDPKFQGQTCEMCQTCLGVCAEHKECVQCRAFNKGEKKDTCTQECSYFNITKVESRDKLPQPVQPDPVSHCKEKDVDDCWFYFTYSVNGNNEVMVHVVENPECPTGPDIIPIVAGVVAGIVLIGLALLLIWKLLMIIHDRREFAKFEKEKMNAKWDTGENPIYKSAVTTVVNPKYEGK

Structure (SMILES)	melting point	IC50 (VLA-4 (α4β1 integrin) [1])	IC50 (VLA-4 (α4β1 integrin) [2])
CC(=O)OC(C)OC(=O)[C@H](Cc1ccc(-c2c(C)n(C)c(=O)n(C)c2=O)cc1)NC(=O)c1c(C)cccc1Cl (stereo partly drawn) [Example 34, N-[(2-chloro-6-methylphenyl)carbonyl]-4-(1,3,6-trimethyl-2,4-dioxo-5-pyrimidinyl)-L-phenylalanine 1-(acetoxy)ethyl ester]	84 to 88 °C	–	< 10 µM
COc1ccc(Br)c(C(=O)N[C@@H](Cc2ccc(-c3cn(C)c(=O)n(C)c3=O)cc2)C(=O)O)c1 [Example 5, N-[(2-bromo-5-methoxyphenyl)carbonyl]-4-[1,3-dimethyl-2,4-dioxo-5-pyrimidinyl]-L-phenylalanine]	–	< 1 nM	< 10 µM
Cc1cccc(Br)c1C(=O)N[C@@H](Cc1ccc(-c2cn(C)c(=O)n(C)c2=O)cc1)C(=O)O [Example 4, N-[(2-bromo-6-methylphenyl)carbonyl]-4-(1,3-dimethyl-2,4-dioxo-5-pyrimidinyl)-L-phenylalanine]	–	< 1 nM	< 0.1 µM
CC(=O)OC(C)OC(=O)[C@H](Cc1ccc(-c2c(C)n(C)c(=O)n(C)c2=O)cc1)NC(=O)c1c(Cl)cccc1Cl (stereo partly drawn) [Example 33, N-[(2,6-dichlorophenyl)carbonyl]-4-(1,3,6-trimethyl-2,4-dioxo-5-pyrimidinyl)-L-phenylalanine 1-(acetoxy)ethyl ester]	168 to 170 °C	–	< 10 µM
Cc1c(-c2ccc(C[C@H](NC(=O)[C@@H]3CCCN3)C(=O)O)cc2)c(=O)n(C)c(=O)n1C [Example 35, L-prolyl-4-(1,3,6-trimethyl-2,4-dioxo-5-pyrimidinyl)-L-phenylalanine]	–	–	< 0.1 µM

Second part, the compound after the results:

melting point	IC50 (VLA-4 (α4β1 integrin) [1])	IC50 (VLA-4 (α4β1 integrin) [2])	Structure (SMILES)
234 to 236 °C	< 1 nM	< 0.1 µM	Cc1cccc(Cl)c1C(=O)N[C@@H](Cc1ccc(-c2cn(C)c(=O)n(C)c2=O)cc1)C(=O)O [Example 2, N-[(2-chloro-6-methylphenyl)carbonyl]-4-(1,3-dimethyl-2,4-dioxo-5-pyrimidinyl)-L-phenylalanine]
205 to 209 °C	–	–	Cc1c(-c2ccc(C[C@H](NC(=O)c3c(Cl)cccc3C(C)C)C(=O)O)cc2)c(=O)n(C)c(=O)n1C [Example 17, N-[[2-chloro-6-(2-methylethyl)phenyl]carbonyl]-4-(1,3,6-trimethyl-2,4-dioxo-5-pyrimidinyl)-L-phenylalanine]
–	–	< 0.1 µM	CCN(CC)CCOC(=O)[C@H](Cc1ccc(-c2c(C)n(C)c(=O)n(C)c2=O)cc1)NC(=O)c1c(C)cccc1Cl [Example 29, N-[(2-chloro-6-methylphenyl)carbonyl]-4-(1,3,6-trimethyl-2,4-dioxo-5-pyrimidinyl)-L-phenylalanine 2-[(N,N-diethyl)amino]ethyl ester]
–	< 10 nM	< 0.1 µM	COCCC1(C(=O)N[C@@H](Cc2ccc(-c3cn(C)c(=O)n(C)c3=O)cc2)C(=O)O)CCCC1 [Example 3, 4-[(1,3-dimethyl-2,4-dioxo-5-pyrimidinyl)]-N-[[1-(2-methoxyethyl)cyclopentyl]carbonyl]-L-phenylalanine]
–	–	< 10 µM	Cc1cccc(Cl)c1C(=O)N[C@@H](Cc1ccc(-c2c(C)n(C)c(=O)n(C)c2=O)cc1)C(=O)OCCN1CCOCC1 [Example 32, N-[(2-chloro-6-methylphenyl)carbonyl]-4-(1,3,6-trimethyl-2,4-dioxo-5-pyrimidinyl)-L-phenylalanine 2-(4-morpholino)ethyl ester]
90 to 94 °C	–	< 10 µM	Cc1c(-c2ccc(C[C@H](NC(=O)c3c(Cl)cccc3Cl)C(=O)OCCN3CCOCC3)cc2)c(=O)n(C)c(=O)n1C [Example 31, N-[(2,6-dichlorophenyl)carbonyl]-4-(1,3,6-trimethyl-2,4-dioxo-5-pyrimidinyl)-L-phenylalanine 2-(4-morpholino)ethyl ester]
–	–	< 0.1 µM	CCN(CC)CCOC(=O)[C@H](Cc1ccc(-c2c(C)n(C)c(=O)n(C)c2=O)cc1)NC(=O)c1c(Cl)cccc1Cl [Example 28, N-[(2,6-dichlorophenyl)carbonyl]-4-(1,3,6-trimethyl-2,4-dioxo-5-pyrimidinyl)-L-phenylalanine 2-[(N,N-diethyl)amino]ethyl ester]
–	–	< 10 µM	CCOC(=O)[C@H](Cc1ccc(-c2c(C)n(C)c(=O)n(C)c2=O)cc1)NC(=O)c1c(C)cccc1Cl [Example 30, N-[(2-chloro-6-methylphenyl)carbonyl]-4-(1,3,6-trimethyl-2,4-dioxo-5-pyrimidinyl)-L-phenylalanine ethyl ester]

Source: patent US6380387B1, “4-Pyrimidinyl-n-acyl-l phenylalanines” (Hoffmann-La Roche Inc., priority 1999, dated 2002)
